Test results: PMC3163123 (Bioorganic & medicinal chemistry, 2011)

Tests used:
[1] = target: T1, recombinant wild-type HIV-1 IN (Human immunodeficiency virus type 1 group M subtype B, UniProt P12497); experiment: Integrase catalytic activity assay, 3′-processing; format: biochemical
[2] = target: T1, recombinant wild-type HIV-1 IN; experiment: biochemical; format: biochemical
H630 colon cancer cells = experiment: MTT cytotoxicity assay; format: cell-based; conditions: at the concentration of up to 40 μM

O=C(O)c1cccc(OCc2ccccc2)c1O [Compound 3a, 3-(Benzyloxy)-2-hydroxybenzoic acid]
IC50 [1]: > 100 µM
IC50 [2]: > 100 µM

O=C(O)c1cccc(OCc2ccc(F)cc2)c1O [Compound 3b, 3-(4-Fluorobenzyloxy)-2-hydroxybenzoic acid]
IC50 [1]: > 100 µM
IC50 [2]: > 100 µM

O=C(O)c1cccc(OCc2ccc3ccccc3c2)c1O [Compound 3c, 3-((Naphthalen-2-yl)methoxy)-2-hydroxybenzoic acid]
IC50 [1]: > 100 µM

O=C(O)c1ccc(OCc2ccccc2)cc1O [Compound 3d, 4-(Benzyloxy)-2-hydroxybenzoic acid]
IC50 [1]: > 100 µM
IC50 [2]: > 100 µM

O=C(O)c1ccc(OCc2ccc(F)cc2)cc1O [Compound 3e, 4-(4-Fluorobenzyloxy)-2-hydroxybenzoic acid]
IC50 [1]: > 100 µM
IC50 [2]: > 100 µM

O=C(O)c1cc(OCc2ccccc2)ccc1O [Compound 3f, 5-(Benzyloxy)-2-hydroxybenzoic acid]
IC50 [1]: > 100 µM
IC50 [2]: > 100 µM

O=C(O)c1cc(OCc2ccc(F)cc2)ccc1O [Compound 3g, 5-(4-Fluorobenzyloxy)-2-hydroxybenzoic acid]
IC50 [1]: > 100 µM
IC50 [2]: > 100 µM

O=C(O)c1c(O)cccc1OCc1ccccc1 [Compound 3h, 2-(Benzyloxy)-6-hydroxybenzoic acid]
IC50 [1]: > 100 µM
IC50 [2]: > 100 µM

O=C(O)c1c(O)cccc1OCc1ccc(F)cc1 [Compound 3i, 2-(4-Fluorobenzyloxy)-6-hydroxybenzoic acid]
IC50 [1]: > 100 µM
IC50 [2]: > 100 µM

O=C(O)c1c(O)cccc1OCc1ccc2ccccc2c1 [Compound 3j, 2-((Naphthalen-2-yl)methoxy)-6-hydroxybenzoic acid]
IC50 [1]: > 100 µM

O=C(NO)c1cccc(OCc2ccc(F)cc2)c1O [Compound 4a, 3-(4-fluorobenzyloxy)-N,2-dihydroxybenzamide]
IC50 [1]: > 100 µM
IC50 [2]: > 100 µM

O=C(NO)c1ccc(OCc2ccc(F)cc2)cc1O [Compound 4b, 4-(4-fluorobenzyloxy)-N,2-dihydroxybenzamide]
IC50 [1]: > 100 µM

O=C(NO)c1cc(OCc2ccc(F)cc2)ccc1O [Compound 4c, 5-(4-fluorobenzyloxy)-N,2-dihydroxybenzamide]
IC50 [1]: > 100 µM

O=C(NO)c1c(O)cccc1OCc1ccc(F)cc1 [Compound 4d, 2-(4-fluorobenzyloxy)-N,6-dihydroxybenzamide]
IC50 [1]: > 100 µM

O=C(NCc1ccc(F)cc1)c1cccc(O)c1O [Compound 5a, N-(4-Fluorobenzyl)-2,3-dihydroxybenzamide]
cytotoxicity in H630 cells (H630 colon cancer cells): not cytotoxic

O=C(NCc1ccc(F)cc1)c1cccc(OCc2ccccc2)c1O [Compound 5b, 3-(Benzyloxy)-N-(4-fluorobenzyl)-2-hydroxybenzamide]
cytotoxicity in H630 cells (H630 colon cancer cells): not cytotoxic
IC50 [1]: > 333 µM

O=C(NCc1cccc2ccccc12)c1cccc(O)c1O [Compound 5c, 2,3-Dihydroxy-N-(naphthalen-1-ylmethyl)benzamide]
IC50 [1]: > 100 µM

O=C(NCc1ccc(F)c(F)c1)c1cccc(O)c1O [Compound 5d, N-(3,4-Difluorobenzyl)-2,3-dihydroxybenzamide]
IC50 [1]: > 100 µM

O=C(Nc1ccc2[nH]ccc2c1)c1cccc(O)c1O [Compound 5g, 2,3-Dihydroxy-N-(1H-indol-5-yl)benzamide]
IC50 [1]: > 100 µM

O=C(NCc1ccc(-c2cccs2)cc1)c1cccc(O)c1O [Compound 5j, 2,3-Dihydroxy-N-(4-(thiophen-2-yl)benzyl)benzamide]
IC50 [1]: > 100 µM

O=C(NC1CCNCC1)c1cccc(O)c1O [Compound 5k, 2,3-Dihydroxy-N-(piperidin-4-yl)benzamide]
IC50 [1]: > 100 µM
IC50 [2]: > 100 µM

O=C(NC1CCCCC1)c1cccc(O)c1O [Compound 5l, N-Cyclohexyl-2,3-dihydroxybenzamide]
IC50 [1]: > 100 µM
IC50 [2]: > 100 µM

O=C(NCC1CCCCC1)c1cccc(O)c1O [Compound 5m, N-(Cyclohexylmethyl)-2,3-dihydroxybenzamide]
IC50 [1]: > 100 µM

CNC(=O)Cc1ccccc1CNC(=O)c1cccc(O)c1O [Compound 5n, 2,3-Dihydroxy-N-(2-(2-(methylamino)-2-oxoethyl)benzyl)benzamide]
IC50 [1]: > 100 µM

CNC(=O)c1cc(F)ccc1CNC(=O)c1cccc(O)c1O [Compound 5o, N-(4-Fluoro-2-(methylcarbamoyl)benzyl)-2,3-dihydroxybenzamide]
IC50 [1]: > 100 µM
IN / strand transfer inhibitory potency [2]: loss of IN inhibitory potency

O=C(NCc1ccc(F)cc1)c1cc(S(=O)(=O)N2CCCCC2)cc(O)c1O [Compound 5p, N-(4-Fluoro-benzyl)-2,3-dihydroxy-5-(piperidine-1-sulfonyl)-benzamide]
selectivity for the strand transfer over the 3′-processing reaction ([2]; ratio of IC50 values): more than 40 fold

CNS(=O)(=O)c1cc(O)c(O)c(C(=O)NCc2ccc(F)cc2)c1 [Compound 5q, N-(4-Fluorobenzyl)-2,3-dihydroxy-5-(N-methylsulfamoyl)benzamide]
IC50 [1]: > 100 µM

O=C(NCc1ccco1)c1cc(S(=O)(=O)N2CCCCC2)cc(O)c1O [Compound 5s, N-(Furan-2-ylmethyl)-2,3-dihydroxy-5-(piperidin-1-ylsulfonyl)benzamide]
IC50 [1]: > 100 µM

O=C(NCc1cccs1)c1cc(S(=O)(=O)N2CCCCC2)cc(O)c1O [Compound 5v, N-(Thiophen-2-ylmethyl)-2,3-dihydroxy-5-(piperidin-1-ylsulfonyl)benzamide]
IC50 [1]: > 100 µM

CS(=O)(=O)Nc1cc(O)c(O)c(C(=O)NCc2ccc(F)cc2)c1 [Compound 5w, N-(4-Fluorobenzyl)-2,3-dihydroxy-5-(methylsulfonamido)benzamide]
IC50 [1]: > 100 µM

CN(C)Cc1ccc(C(=O)NCc2ccc(F)cc2)c(O)c1O [Compound 6a, 4-((Dimethylamino)methyl)-N-(4-fluorobenzyl)-2,3-dihydroxybenzamide]
IC50 [1]: > 100 µM

CN(C)Cc1ccc(C(=O)NCc2ccco2)c(O)c1O [Compound 6b, 4-((Dimethylamino)methyl)-N-(furan-2-ylmethyl)-2,3-dihydroxybenzamide]
IC50 [1]: > 100 µM

COc1cc(S(=O)(=O)N2CCCCC2)cc(C(=O)NCc2ccco2)c1O [Compound 6c, N-(Furan-2-ylmethyl)-2-hydroxy-3-methoxy-5-(piperidin-1-ylsulfonyl)benzamide]
IC50 [1]: > 100 µM
IC50 [2]: > 100 µM
IN / strand transfer inhibitory potency [2]: severe loss of potency

Nc1cccc(C(=O)NCc2ccco2)c1O [Compound 6d, 3-Amino-N-(furan-2-ylmethyl)-2-hydroxybenzamide]
IC50 [1]: > 100 µM
IC50 [2]: > 100 µM
IN / strand transfer inhibitory potency [2]: severe loss of potency
